Experimental findings from ChEMBL document CHEMBL5465560, “Selectivity Literature for EUbOPEN Chemogenomic Library” (2024) are described below.

Assay [1] addresses T1, Mitogen-activated protein kinase 15 (Homo sapiens) (UniProt Q8TD08).
T1 sequence (whole entry): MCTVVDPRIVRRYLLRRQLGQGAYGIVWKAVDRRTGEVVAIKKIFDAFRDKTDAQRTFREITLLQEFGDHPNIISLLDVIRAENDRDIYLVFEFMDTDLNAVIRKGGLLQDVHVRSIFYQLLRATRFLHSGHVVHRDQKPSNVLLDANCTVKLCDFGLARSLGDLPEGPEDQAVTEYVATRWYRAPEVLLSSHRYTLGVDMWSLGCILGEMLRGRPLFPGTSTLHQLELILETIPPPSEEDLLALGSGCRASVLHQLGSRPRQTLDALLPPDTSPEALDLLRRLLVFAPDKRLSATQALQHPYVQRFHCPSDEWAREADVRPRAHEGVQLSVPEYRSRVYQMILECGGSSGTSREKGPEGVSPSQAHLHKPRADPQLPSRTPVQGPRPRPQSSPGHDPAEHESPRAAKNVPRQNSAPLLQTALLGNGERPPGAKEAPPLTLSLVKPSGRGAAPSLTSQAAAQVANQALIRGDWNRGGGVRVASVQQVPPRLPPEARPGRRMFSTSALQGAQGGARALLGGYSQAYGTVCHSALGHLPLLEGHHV
In words: Selectivity interaction (LanthaScreen Eu Kinase Binding Assay) EUB0001632a MAPK15. To be noted: at 10 µM.

In assay [2] the target is Cyclin-dependent kinase 13 (Homo sapiens, UniProt Q14004). In words: Selectivity interaction (KinomeScan (DiscoverX)) EUB0000607a CDK13. To be noted: at 10 µM.
In assay [3] the target is Casein kinase I isoform epsilon (Homo sapiens, UniProt P49674). In words: Selectivity interaction (KinomeScan (DiscoverX)) EUB0000607a CSNK1E. The following applies: at 10 µM.
Assay [4] has as its target T2, cGMP-dependent protein kinase 2 (Homo sapiens) (UniProt Q13237).
T2 sequence (whole entry): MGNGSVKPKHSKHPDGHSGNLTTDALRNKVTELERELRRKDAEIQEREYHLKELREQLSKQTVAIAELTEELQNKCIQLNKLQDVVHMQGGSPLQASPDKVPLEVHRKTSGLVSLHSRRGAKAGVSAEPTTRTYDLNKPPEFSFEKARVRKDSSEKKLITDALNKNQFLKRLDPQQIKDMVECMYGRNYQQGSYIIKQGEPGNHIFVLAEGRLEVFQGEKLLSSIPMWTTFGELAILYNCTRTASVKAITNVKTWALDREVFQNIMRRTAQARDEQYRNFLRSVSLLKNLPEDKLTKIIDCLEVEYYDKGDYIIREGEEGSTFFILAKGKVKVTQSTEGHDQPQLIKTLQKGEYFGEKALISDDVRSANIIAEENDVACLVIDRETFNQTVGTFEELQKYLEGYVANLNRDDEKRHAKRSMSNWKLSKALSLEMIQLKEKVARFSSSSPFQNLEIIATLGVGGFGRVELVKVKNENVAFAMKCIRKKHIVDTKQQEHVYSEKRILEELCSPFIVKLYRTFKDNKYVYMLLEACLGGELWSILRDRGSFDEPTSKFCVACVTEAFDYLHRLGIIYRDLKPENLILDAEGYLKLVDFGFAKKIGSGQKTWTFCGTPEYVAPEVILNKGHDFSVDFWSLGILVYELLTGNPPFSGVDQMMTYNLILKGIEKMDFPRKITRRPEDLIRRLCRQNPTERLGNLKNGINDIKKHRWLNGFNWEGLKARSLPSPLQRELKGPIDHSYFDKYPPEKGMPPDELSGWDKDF
In words: Selectivity interaction (KinomeScan (DiscoverX)) EUB0000607a PRKG2. To be noted: at 10 µM.

The target of assay [5] is Histone-lysine N-methyltransferase SUV39H2 (Homo sapiens) (UniProt Q9H5I1). To be noted: at 1 µM.
For assay [6], the target named is Calcium/calmodulin-dependent protein kinase type II subunit beta (Homo sapiens) (UniProt Q13554). In words: Selectivity interaction (KinomeScan (DiscoverX)) EUB0000655a CAMK2B. The following applies: at 10 µM.
In assay [7] the target is Ribosomal protein S6 kinase alpha-2 (Homo sapiens) (UniProt Q15349). In words: Selectivity interaction (ActivX KiNativ screen (kinase selectivity in THP-1 cell lysates)) EUB0000639a RPS6KA2. The following applies: lysate, at 0.04 µM. Format: subcellular.
Assay [8] has as its target Mitogen-activated protein kinase 7 (Homo sapiens) (UniProt Q13164). As to the kind of experiment: Selectivity interaction (KinomeScan (DiscoverX)) EUB0000695a MAPK7. To be noted: at 100 nM.
For assay [9], the target named is T3, Serine/threonine-protein kinase D2 (Homo sapiens) (UniProt Q9BZL6).
T3 sequence (whole entry): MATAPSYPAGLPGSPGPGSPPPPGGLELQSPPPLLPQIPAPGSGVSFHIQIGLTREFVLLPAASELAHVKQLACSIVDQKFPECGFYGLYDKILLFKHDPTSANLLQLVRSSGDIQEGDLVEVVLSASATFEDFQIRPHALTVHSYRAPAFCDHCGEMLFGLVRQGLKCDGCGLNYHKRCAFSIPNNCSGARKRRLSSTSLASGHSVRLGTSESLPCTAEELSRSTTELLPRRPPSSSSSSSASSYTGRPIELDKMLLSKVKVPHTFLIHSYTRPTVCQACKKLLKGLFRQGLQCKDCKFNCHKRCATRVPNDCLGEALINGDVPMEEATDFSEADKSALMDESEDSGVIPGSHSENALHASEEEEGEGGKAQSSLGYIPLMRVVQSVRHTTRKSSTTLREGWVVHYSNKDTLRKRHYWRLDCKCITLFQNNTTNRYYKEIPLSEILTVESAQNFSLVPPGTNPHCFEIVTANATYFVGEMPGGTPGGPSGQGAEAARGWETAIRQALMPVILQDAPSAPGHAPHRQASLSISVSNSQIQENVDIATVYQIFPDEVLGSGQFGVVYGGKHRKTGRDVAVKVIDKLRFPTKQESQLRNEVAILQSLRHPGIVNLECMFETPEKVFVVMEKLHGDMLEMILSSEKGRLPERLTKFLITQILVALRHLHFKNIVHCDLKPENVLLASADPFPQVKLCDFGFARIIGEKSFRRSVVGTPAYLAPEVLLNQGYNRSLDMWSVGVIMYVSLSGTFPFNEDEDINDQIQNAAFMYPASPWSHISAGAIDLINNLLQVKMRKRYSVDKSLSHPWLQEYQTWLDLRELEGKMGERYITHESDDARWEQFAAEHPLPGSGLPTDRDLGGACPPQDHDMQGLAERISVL
As to the kind of experiment: Selectivity interaction (KinomeScan (DiscoverX)) EUB0000695a PRKD2. The following applies: at 100 nM.

Assay [10] deals with Dual specificity protein kinase CLK2 (Homo sapiens, UniProt P49760). In words: Selectivity interaction (Enzymatic assay) EUB0001550a CLK2.
The target in assay [11] is Serine/threonine-protein kinase 32C (Homo sapiens) (UniProt Q86UX6). In words: Selectivity interaction (KinomeScan (DiscoverX)) EUB0000595a STK32C. To be noted: at 10 µM.
Assay [12] concerns the target Death-associated protein kinase 3 (Homo sapiens) (UniProt O43293). The following applies: at 10 µM.

Sequence of Casein kinase I isoform epsilon (P49674 whole entry, looked up, canonical isoform): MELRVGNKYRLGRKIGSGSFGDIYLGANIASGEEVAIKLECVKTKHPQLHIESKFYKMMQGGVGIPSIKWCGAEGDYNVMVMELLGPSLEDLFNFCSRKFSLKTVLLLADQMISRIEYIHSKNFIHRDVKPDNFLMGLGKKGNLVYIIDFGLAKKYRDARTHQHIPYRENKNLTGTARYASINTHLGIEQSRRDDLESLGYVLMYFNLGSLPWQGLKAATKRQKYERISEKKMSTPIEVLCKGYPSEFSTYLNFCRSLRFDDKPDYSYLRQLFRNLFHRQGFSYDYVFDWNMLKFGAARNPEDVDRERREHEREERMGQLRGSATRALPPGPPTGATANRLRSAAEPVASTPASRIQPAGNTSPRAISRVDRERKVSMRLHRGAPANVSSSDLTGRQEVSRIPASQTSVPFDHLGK
Sequence of Serine/threonine-protein kinase 32C (Homo sapiens) (Q86UX6 whole entry): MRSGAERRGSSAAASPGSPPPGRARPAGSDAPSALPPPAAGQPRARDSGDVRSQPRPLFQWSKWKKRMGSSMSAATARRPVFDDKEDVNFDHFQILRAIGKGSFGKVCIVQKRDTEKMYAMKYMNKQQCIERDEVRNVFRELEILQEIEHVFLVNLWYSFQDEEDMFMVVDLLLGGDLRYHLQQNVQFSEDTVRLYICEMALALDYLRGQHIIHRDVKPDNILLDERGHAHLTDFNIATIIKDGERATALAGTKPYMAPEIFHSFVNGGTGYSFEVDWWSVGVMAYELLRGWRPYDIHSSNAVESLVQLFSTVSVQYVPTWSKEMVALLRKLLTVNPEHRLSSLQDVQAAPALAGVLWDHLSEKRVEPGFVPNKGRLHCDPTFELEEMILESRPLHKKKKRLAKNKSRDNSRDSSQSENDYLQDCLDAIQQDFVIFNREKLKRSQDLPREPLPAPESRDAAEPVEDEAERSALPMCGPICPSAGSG
Sequence of Cyclin-dependent kinase 13 (Q14004 whole entry, looked up, canonical isoform): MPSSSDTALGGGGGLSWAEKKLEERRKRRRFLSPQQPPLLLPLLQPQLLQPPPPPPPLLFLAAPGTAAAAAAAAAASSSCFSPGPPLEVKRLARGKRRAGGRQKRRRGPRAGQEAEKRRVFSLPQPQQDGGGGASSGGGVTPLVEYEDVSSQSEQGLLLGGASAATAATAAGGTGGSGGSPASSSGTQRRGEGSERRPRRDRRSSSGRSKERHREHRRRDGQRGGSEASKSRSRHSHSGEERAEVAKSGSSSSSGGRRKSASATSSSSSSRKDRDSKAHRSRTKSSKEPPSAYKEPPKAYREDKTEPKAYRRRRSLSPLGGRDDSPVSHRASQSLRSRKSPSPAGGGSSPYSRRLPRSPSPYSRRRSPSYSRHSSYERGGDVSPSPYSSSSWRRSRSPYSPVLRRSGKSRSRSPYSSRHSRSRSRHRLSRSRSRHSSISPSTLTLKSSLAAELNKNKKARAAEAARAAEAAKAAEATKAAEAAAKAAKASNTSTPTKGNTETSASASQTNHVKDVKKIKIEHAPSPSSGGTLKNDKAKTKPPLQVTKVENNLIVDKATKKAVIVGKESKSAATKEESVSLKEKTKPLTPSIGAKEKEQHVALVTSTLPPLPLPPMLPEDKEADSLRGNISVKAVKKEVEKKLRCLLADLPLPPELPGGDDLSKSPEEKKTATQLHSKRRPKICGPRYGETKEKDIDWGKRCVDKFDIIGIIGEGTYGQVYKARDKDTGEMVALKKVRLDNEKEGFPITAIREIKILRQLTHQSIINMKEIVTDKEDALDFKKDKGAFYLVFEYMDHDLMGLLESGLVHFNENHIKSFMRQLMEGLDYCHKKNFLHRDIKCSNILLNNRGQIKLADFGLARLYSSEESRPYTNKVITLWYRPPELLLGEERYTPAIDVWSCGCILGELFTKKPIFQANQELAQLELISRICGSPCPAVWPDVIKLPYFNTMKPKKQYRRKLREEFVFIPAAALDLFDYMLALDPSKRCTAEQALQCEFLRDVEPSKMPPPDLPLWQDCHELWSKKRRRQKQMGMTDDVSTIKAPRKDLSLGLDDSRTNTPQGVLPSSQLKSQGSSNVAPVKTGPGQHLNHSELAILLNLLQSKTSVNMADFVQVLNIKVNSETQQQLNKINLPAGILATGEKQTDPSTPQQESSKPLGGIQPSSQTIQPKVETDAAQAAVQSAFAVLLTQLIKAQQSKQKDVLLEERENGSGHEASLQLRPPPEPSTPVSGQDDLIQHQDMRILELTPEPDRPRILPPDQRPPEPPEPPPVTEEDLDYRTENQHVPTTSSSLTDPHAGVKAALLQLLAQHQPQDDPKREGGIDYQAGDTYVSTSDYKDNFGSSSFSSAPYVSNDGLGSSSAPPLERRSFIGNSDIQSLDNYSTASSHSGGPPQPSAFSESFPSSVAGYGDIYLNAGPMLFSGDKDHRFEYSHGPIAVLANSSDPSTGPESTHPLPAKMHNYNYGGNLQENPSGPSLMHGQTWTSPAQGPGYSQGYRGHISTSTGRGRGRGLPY
Sequence of Death-associated protein kinase 3 (Homo sapiens) (O43293 whole entry, looked up): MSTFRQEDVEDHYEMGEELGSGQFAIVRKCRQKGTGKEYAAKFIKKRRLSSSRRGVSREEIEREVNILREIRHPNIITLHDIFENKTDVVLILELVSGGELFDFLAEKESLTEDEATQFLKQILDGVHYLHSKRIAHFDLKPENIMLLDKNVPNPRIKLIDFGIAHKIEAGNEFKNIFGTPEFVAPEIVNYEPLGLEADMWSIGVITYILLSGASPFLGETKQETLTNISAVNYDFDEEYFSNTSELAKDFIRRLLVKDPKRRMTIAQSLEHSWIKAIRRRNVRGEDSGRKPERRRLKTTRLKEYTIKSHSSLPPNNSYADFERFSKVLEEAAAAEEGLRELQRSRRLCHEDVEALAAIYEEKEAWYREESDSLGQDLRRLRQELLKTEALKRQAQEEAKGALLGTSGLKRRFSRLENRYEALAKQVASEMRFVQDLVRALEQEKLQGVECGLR
Sequence of Ribosomal protein S6 kinase alpha-2 (Homo sapiens) (Q15349 whole entry): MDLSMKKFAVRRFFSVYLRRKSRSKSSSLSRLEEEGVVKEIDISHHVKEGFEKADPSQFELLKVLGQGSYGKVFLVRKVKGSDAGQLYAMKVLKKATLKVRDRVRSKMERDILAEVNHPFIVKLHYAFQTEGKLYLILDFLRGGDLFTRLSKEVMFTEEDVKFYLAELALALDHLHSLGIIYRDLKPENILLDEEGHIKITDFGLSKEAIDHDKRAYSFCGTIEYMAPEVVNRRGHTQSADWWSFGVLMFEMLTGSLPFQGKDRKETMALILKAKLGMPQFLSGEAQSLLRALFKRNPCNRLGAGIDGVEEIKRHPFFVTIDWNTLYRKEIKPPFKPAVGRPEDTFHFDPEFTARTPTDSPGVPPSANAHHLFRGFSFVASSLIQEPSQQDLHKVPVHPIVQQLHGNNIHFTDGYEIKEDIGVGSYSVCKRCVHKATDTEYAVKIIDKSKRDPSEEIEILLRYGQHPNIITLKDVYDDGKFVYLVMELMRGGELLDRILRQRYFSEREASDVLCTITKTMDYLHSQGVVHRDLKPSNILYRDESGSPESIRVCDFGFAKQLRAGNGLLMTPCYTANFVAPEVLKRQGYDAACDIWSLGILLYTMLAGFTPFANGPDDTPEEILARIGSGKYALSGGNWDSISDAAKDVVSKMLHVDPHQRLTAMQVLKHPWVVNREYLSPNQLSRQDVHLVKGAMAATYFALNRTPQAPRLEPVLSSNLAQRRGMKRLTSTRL
Sequence of Dual specificity protein kinase CLK2 (P49760 whole entry): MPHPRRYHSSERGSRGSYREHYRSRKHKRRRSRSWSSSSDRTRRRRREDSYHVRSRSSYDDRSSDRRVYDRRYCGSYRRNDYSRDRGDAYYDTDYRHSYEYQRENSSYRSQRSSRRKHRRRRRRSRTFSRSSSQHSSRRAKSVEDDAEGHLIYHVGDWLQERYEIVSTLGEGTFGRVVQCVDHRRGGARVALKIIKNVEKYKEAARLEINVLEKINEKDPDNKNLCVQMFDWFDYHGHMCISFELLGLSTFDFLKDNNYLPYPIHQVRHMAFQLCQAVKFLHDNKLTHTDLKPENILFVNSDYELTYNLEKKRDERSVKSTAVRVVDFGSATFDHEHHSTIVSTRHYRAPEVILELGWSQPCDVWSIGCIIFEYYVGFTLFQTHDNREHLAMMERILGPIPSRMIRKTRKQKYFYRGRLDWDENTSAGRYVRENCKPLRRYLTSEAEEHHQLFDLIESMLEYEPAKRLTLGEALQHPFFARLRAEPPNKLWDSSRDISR
Sequence of Histone-lysine N-methyltransferase SUV39H2 (Homo sapiens) (Q9H5I1 whole entry): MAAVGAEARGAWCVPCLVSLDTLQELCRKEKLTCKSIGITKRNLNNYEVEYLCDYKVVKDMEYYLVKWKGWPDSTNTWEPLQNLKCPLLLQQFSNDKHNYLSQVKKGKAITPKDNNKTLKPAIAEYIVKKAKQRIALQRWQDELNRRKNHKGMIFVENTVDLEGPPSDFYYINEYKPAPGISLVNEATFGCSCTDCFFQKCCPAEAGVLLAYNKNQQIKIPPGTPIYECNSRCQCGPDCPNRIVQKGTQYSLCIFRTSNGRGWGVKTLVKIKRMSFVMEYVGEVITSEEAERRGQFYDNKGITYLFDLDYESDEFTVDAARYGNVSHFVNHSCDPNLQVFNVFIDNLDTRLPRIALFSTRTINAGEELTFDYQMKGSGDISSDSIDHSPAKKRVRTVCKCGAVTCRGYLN

`Cn1cc(-n2cnc3c(NCc4nc5cc(Cl)c(Cl)cc5[nH]4)nc(N4CCOCC4)nc32)cn1`: the % of inhibition in assay [1] was -42.8%.
For `CNC(=O)Nc1ccc(-c2nc(N3CC4CCC(C3)O4)c3cnn(C4CCC5(CC4)OCCO5)c3n2)cc1`, the % of control in assay [2] came to 84%; in assay [3], 39%; in [4], 88%.
The molecule `CNCCN1CCC(c2cc(CN(C)C(=O)c3cccc(Oc4ccccc4)c3)ccn2)CC1` came in with a % activity in assay [5] of more than 90%.
As to `CN(C)CCOc1ccc(-c2nc(-c3ccncc3)c(-c3ccc4c(c3)CC/C4=N\O)[nH]2)cc1`, the % of control in assay [6] is 98%.
For `CC[C@@H]1[C@H](F)C(=O)N[C@@H]1COc1nccc2cc(C(N)=O)c(OC)cc12` [ZIMLOVISERTIB], the % of inhibition in [7] was -7.6%.
Turning to `Cc1cc(F)c(C(=O)Nc2cccc(-c3nncn3C(C)C)n2)cc1-n1cnc(C2CC2)c1`, the % of control in assay [8] worked out at 100%; in [9] it was 58%.
Consider `CN(C)CC#Cc1ccc2[nH]c3c(c2c1)-c1nc(N)ncc1CCC3`, for which inhibition in [10] was half-maximal at 290 nM (IC50).
Turning to `COCC(=O)NC/C=C/c1ccc2ncnc(Nc3ccc(Oc4ccc(C)nc4)c(C)c3)c2c1` [CP-724714], the % of control is 86% in [11] and 96% in assay [12].
